Entries after “also recorded” stand apart in the source; their conditions may differ.
What was measured:
recombinant SHIP1 = biological target: T1, recombinant SHIP1 (Homo sapiens, UniProt Q92835); test: Malachite Green phosphatase assay for SHIP1 activity against PI(3,4,5)P3 substrate; assay type: biochemical
T1 sequence (Q92835 1-1189): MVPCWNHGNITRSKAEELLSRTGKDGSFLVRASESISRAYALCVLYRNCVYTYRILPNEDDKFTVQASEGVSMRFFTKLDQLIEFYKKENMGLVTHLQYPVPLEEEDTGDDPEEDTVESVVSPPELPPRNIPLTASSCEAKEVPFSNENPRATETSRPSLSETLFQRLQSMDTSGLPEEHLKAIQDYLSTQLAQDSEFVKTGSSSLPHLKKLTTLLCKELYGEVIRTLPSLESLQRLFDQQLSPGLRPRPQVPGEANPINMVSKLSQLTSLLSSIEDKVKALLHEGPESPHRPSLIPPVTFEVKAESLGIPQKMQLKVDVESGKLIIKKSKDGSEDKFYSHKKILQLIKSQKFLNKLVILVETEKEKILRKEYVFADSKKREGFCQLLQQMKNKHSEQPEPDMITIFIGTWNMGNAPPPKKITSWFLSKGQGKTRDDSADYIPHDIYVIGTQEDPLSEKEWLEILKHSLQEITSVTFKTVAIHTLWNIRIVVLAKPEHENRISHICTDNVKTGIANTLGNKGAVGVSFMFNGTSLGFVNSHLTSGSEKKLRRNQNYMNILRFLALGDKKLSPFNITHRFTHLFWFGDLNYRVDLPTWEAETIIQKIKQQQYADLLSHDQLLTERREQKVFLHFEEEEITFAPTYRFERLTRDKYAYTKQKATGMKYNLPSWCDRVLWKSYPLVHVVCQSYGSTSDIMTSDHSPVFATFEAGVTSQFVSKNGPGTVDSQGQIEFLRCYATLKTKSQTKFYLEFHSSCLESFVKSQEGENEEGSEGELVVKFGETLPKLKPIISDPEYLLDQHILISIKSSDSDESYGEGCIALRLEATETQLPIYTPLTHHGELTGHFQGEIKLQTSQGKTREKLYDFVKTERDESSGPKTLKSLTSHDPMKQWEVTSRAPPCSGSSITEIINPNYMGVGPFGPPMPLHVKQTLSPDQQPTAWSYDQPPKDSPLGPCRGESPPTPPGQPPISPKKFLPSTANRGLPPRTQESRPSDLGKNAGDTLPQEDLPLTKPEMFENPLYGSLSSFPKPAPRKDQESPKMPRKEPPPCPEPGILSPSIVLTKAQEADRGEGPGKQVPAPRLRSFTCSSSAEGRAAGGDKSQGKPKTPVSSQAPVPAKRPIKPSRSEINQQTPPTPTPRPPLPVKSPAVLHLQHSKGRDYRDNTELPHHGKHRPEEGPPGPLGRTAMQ
Method: Absorbance is recorded at 620 nm, smaller numbers indicate a lack of green color and inhibition of the phosphatase.
(§1) [Noto bene: DRV-IV-26=3A5AS]

MIR cell numbers = test: MIR cell induction in treated mice; assay type: in vivo; details: FIG. 6C, D
Method: as §1
The solubility of 3AC was assessed by calculating the distribution coefficient (CLogD). This calculation estimates the CLogD for 3AC at 7.17 indicating the molecule is very lipophilic. Thus, we have begun to develop novel 3AC analogs with increased aqueous solubility. One of these compounds, 3A5AS, has a CLogD of 3.33. Lipinski's rules (a common measure of small molecule pharmacokinetics) recommend a ClogD of <5 for in vivo applications.

C[C@@]12CCC[C@H]1[C@@H]1CC[C@H]3C[C@H](N)CC[C@]3(C)[C@H]1CC2 [Example 3A5AS, 3α-amino-5α-androstane]
Inhibition of recombinant SHIP1 activity in vitro, compared with 3AC (recombinant SHIP1; Malachite Green assay, PI(3,4,5)P3 substrate, FIG. 5B / FIG. 6A): equal inhibitory activity; also recorded: equally potent
Concentration inducing a comparable MIR cell increase in vivo (MIR cell numbers): 15 µM
Potency at inducing MIR cell numbers in vivo, compared with 3AC (MIR cell numbers): more potent

CC(C)CCC[C@@H](C)[C@H]1CC[C@H]2[C@@H]3CCC4C[C@H](N)CC[C@]4(C)[C@H]3CC[C@]12C (some centres unmarked) [Example 3AC, reference compound]
Concentration inducing a comparable MIR cell increase in vivo (MIR cell numbers): 60 µM

CCN [ethylamine]
SHIP1 inhibition by lack of green color (recombinant SHIP1; SHIP1 malachite phosphatase assay, FIG. 1, visual readout): poor inhibitor

Reference: patent US11319336B2, “Ship inhibitors and uses thereof” (The Research Foundation For The State University Of New York, priority 2010, dated 2022)
